The values that follow come from patent publication US9260326B2, “Selective oxoanion separation using a tripodal ligand” (UT-BATTELLE, LLC, priority 2012, dated 2016).

Each structure is given as a SMILES string.

A short description of series [1]: Pairwise competitive crystallization with L1, Na-based system. The method, then: (§1) The experiments described below were generally conducted as described above and as described in Rajbanshi et al. 2012.
To assess the size recognition of the crystalline capsule in the Na-based system, similar pairwise competitive crystallization experiments were performed with L1 (two equivalents) and Na2SO4/Na2SeO4 mixtures (one equivalent each) in H2O/MeOH. […] The SO4^2−/SeO4^2− molar ratio found in the crystalline solid resulting from the competitive crystallization was 31.3, indicating strong size recognition for SO4^2−. […] The increased SO4^2−/SeO4^2− selectivity in the Na-based system may be attributed to the smaller size of the Na capsule (d(N . . . N)=9.51 Å) compared to the Mg capsule (d(N . . . N)=9.65 Å), which favored the smaller sulphate anion.
In comparison with the good SO4^2−/SeO4^2− selectivity observed in the Na-based crystallizations, the competitive crystallization experiment involving a Na2SO4/Na2CrO4 mixture under similar conditions yielded crystals with a SO4^2−/CrO4^2− ratio of only 2.0. […] As a result, binding of chromate is inherently favored due to its stronger hydrogen bond acceptor ability compared to sulphate, a factor that apparently offsets much of the size discrimination effect.

Series [2] in a line: Pairwise competitive crystallization with L1, K-based system.
Description: as §1
For the K-based system, pairwise competitive crystallizations with L1 gave SO4^2/SeO4^2− selectivity and SO4^2−/CrO4^2− selectivity ratios of 13.3 and 1.1, respectively. The potassium capsule was the smallest of the three systems (d(N . . . N)=9.21 Å).

Series [3] can be described thus: Sulfate separation and L1 recycling, Mg-based system, Simulant 1. The method, then: For comparison purposes, solid L1.2H2O (478 mg, 0.88 mmol) and Mg(NO3)2 (113 mg, 0.44 mmol) were added to 10 mL of Simulant 1 solution (Table 1) containing 0.44 mmol SO4^2−. The mixture was stirred magnetically at room temperature for 48 h, and the resulting solid was filtered, washed with water, and dried. The identity of the crystalline product, MgSO4(L1)2(H2O)6 (Compound 3) was confirmed by PXRD and FTIR spectroscopy.
To recover and recycle L1, crystals of Compound 3 (457 mg, 0.368 mmol) were dissolved in 1 M HNO3 (1 mL) to form a clear solution to which was added 1 M NaOH (2 mL). The mixture was stirred at room temperature overnight, and the resulting solid was filtered, washed with water, and dried. Yield: 388 mg. […] The solid mixture of L1.2H2O and Mg(OH)2 could be recycled by adding it to a fresh solution of the simulant, thereby initiating another separation cycle.
The recovered solid L1 and magnesium hydroxide were then added to a fresh simulant solution to start another cycle. Such cycling was repeated twice more. […] This established that the ligand is robust enough to survive at least three recovery cycles. Although this magnesium-based system is not applicable to the full alkaline conditions encountered in the nuclear waste, the ease of operation coupled with high efficiency and good ligand recyclability opens the door to other industrial sulfate separations from simpler, less basic aqueous solutions.

A short description of series [4]: Relative solubility in water. Type of series: physicochemical. Particulars: pure water. An excerpt:
The final crystalline solid was isolated in 90% yield, and its PXRD and FTIR spectra corresponded to those of pure Compound 1 (FIG. 4). The relatively long reaction time required to convert L1 to Compound 1 appeared to proceed via a three-phase process involving slow dissolution of L1 and its recrystallization into Compound 1.

The conditions of series [5]: Mg-based system (Rajbanshi et al. 2012); cited from earlier work.

As to `O=C(NCCN(CCNC(=O)Nc1cccnc1)CCNC(=O)Nc1cccnc1)Nc1cccnc1` [Compound L1], the “molar ratio of sulphate over competing carbonate in crystals” value in series [1] (L1 2 equiv, Na2SO4 and Na2CO3 1 equiv each, H2O/MeOH, elemental analysis) came to 11.5. The “molar ratio of sulphate over competing sulphite in crystals” value in series [1] (L1 2 equiv, Na2SO4 and Na2SO3 1 equiv each, H2O/MeOH, elemental analysis) stood at 5.9. The “SO4^2−/CrO4^2− ratio in crystals” value in series [1] (Na2SO4/Na2CrO4 mixture) is given as 2.0. Further, the “SO4^2−/CrO4^2− selectivity ratio” value in series [2] is recorded as 1.1. Besides, the “SO4^2−/SeO4^2− selectivity ratio” value in series [2] stood at 13.3. The recovery of sulfate in series [3] (Simulant 1, first listed cycle) is given as 99.6%; in series [3] (Simulant 1, second listed cycle), 99.4%; in series [3] (Simulant 1, third listed cycle) it was 97.9%. Further, the “solubility relative to Compound 1” value in series [4] is listed as “less soluble than Compound 1”. For the same compound, in series [5], the “SO4^2−/SeO4^2− ratio” value is 3.
